The text below walks through data of patent publication US8580545B2, “Biodegradable linkers for molecular therapies” (The Children's Hospital of Philadelphia, priority 2004, dated 2013).

The data set can be described thus: Hydrolysis of the ester bond of the cross-linker (model experiments). The note with it: 37° C.

Consider `O=C(CCCCC(=O)ON1C(=O)CC(S(=O)(=O)[O-])C1=O)NCC(=O)OCCSSc1ccccn1.[Na+]` (centres unmarked) [cross-linker 2], for which the “t1/2 of the ester bond hydrolysis” value is listed as “several days”.

`O=C(CCSSc1ccccn1)NCCCOC(=O)CCCCC(=O)ON1C(=O)CC(S(=O)(=O)[O-])C1=O.[Na+]` (centres unmarked) [cross-linker 1]: the “t1/2 of the ester bond hydrolysis” value was “several weeks”.
